Target: C4-reductase from serotype HS:15 (HS:15) (Campylobacter jejuni, UniProt F2X7A6)
Assay: X-ray crystal structure, […] A
Assay type: binding
Settings: co-crystallised with 5 mM NADPH and 5 mM GDP; pH 7.5; active site

Compound	X-ray crystal structure, 1.45 A
NC(=O)C1=CN([C@@H]2O[C@H](COP(=O)(O)OP(=O)(O)OC[C@H]3O[C@@H](n4cnc5c(N)ncnc54)[C@H](OP(=O)(O)O)[C@@H]3O)[C@@H](O)[C@H]2O)C=CC1 [NADPH]	the corresponding electron densities for the GDP and NADPH ligands were unambiguous
Nc1nc2c(ncn2[C@@H]2O[C@H](COP(=O)(O)OP(=O)(O)O)[C@@H](O)[C@H]2O)c(=O)[nH]1 [GDP]	the corresponding electron densities for the GDP and NADPH ligands were unambiguous

From article PMC9838653 (Biochemistry, 2022)
